Tests used:
[1] = Oral bioavailability in rat at 5 mg/kg; type: ADME, organism-based; conditions: in vivo
[2] = Tmax in rat at 5 mg/kg, po; type: ADME, organism-based; set-up: dose 5 mg/kg, route oral; conditions: in vivo
[3] = Metabolic stability in rat liver microsomes assessed as half life; type: ADME, Microsome
[4] = Cmax in rat at 5 mg/kg, po; type: ADME, organism-based; set-up: dose 5 mg/kg, route oral; conditions: in vivo
[5] = Volume of distribution in rat at 1 mg/kg, iv; type: ADME, organism-based; set-up: dose 1 mg/kg, route intravenous; conditions: in vivo
[6] = Ratio of drug level in brain to plasma in rat at 10 mg/kg, ip; type: ADME, organism-based; set-up: dose 10 mg/kg, route intraperitoneal; conditions: brain and plasma, read-out: BPR
Histamine H3 receptor [7] = biological target: Histamine H3 receptor (Rattus norvegicus, UniProt Q9QYN8); experiment: Displacement of [3H]-NAMH from rat histamine H3 receptor
Chain of Histamine H3 receptor (Rattus norvegicus, UniProt Q9QYN8) (Q9QYN8 whole entry): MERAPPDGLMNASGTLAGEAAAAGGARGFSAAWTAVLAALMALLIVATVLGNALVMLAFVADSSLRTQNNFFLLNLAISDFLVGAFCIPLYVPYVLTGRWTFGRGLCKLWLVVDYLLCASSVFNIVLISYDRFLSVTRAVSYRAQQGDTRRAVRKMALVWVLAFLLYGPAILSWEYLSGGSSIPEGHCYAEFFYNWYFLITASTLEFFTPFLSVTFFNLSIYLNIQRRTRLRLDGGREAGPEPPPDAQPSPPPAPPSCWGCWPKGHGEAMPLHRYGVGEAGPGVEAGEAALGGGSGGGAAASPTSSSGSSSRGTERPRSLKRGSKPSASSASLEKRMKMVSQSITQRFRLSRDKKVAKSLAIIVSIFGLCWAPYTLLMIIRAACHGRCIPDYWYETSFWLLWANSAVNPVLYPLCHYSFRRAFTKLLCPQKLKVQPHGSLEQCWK

[8] = Drug uptake in rat brain at 10 mg/kg, ip after 1 hr; type: ADME, organism-based; set-up: dose 10 mg/kg, route intraperitoneal; conditions: read-out: Drug uptake
Histamine H3 receptor [9] = biological target: Histamine H3 receptor (Homo sapiens, UniProt Q9Y5N1); experiment: Displacement of [3H]-NAMH from human histamine H3 receptor
Chain of Histamine H3 receptor (Homo sapiens, UniProt Q9Y5N1) (Q9Y5N1 whole entry): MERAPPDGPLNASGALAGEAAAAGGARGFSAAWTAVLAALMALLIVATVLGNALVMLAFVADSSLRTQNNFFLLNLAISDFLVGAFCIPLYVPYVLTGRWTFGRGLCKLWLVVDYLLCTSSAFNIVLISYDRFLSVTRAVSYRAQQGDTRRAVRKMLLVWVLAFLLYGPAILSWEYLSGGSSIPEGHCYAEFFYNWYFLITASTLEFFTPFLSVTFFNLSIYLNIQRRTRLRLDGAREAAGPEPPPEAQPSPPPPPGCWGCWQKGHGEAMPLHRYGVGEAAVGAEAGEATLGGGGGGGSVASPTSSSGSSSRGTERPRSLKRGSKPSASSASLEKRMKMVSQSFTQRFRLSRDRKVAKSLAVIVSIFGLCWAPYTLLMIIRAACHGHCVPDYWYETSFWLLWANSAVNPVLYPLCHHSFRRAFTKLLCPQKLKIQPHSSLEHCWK

[10] = Metabolic stability in mouse liver microsomes assessed as half life; type: ADME, Microsome
Rattus norvegicus [11] = experiment: AUC (0 to 6 hrs) in rat at 5 mg/kg, po; type: ADME, organism-based, Plasma; set-up: time < 6 hr, dose 5 mg/kg, route oral; conditions: in vivo
[12] = Metabolic stability in dog liver microsomes assessed as half life; type: ADME, Canis lupus familiaris, Microsome
[13] = Metabolic stability in human liver microsomes assessed as half life; type: ADME, Microsome
Cytochrome P450 3A4 = Cytochrome P450 3A4 (Homo sapiens, UniProt P08684); experiment: Inhibition of CYP3A4; type: ADME
Chain of Cytochrome P450 3A4 (P08684 whole entry): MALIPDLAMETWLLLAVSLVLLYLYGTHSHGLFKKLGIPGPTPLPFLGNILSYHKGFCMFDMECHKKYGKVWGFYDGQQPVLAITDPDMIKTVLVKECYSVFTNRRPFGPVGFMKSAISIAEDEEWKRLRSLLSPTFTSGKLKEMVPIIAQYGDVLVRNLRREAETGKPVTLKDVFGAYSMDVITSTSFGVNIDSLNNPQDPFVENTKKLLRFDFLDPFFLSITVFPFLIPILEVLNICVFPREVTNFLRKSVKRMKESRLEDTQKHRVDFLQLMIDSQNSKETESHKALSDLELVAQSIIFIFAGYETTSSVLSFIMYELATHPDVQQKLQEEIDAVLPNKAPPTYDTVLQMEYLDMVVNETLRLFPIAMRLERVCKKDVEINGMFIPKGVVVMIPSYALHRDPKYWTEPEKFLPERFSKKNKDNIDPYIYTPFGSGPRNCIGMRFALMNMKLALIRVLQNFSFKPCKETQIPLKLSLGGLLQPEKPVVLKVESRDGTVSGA

Cytochrome P450 2C19 = Cytochrome P450 2C19 (Homo sapiens, UniProt P33261); experiment: Inhibition of CYP2C19; type: ADME
Chain of Cytochrome P450 2C19 (P33261 whole entry): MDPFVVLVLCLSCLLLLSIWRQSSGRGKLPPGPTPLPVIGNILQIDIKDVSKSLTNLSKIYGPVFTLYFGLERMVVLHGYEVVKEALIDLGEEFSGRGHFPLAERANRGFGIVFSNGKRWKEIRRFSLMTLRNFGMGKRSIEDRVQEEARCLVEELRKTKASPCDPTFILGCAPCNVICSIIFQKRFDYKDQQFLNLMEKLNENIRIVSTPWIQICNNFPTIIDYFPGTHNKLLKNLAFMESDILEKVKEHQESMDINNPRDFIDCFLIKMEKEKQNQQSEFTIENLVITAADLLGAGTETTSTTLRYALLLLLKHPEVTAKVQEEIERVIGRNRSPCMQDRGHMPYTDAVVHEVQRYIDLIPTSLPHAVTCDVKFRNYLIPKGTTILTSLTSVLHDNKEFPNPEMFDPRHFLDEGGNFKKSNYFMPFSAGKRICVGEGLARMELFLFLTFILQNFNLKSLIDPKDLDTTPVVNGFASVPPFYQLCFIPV

[14] = Clearance in rat at 1 mg/kg, iv; type: ADME, organism-based; set-up: dose 1 mg/kg, route intravenous; conditions: in vivo
Cytochrome P450 2C9 = Cytochrome P450 2C9 (Homo sapiens, UniProt P11712); experiment: Inhibition of CYP2C9; type: ADME
Chain of Cytochrome P450 2C9 (P11712 whole entry): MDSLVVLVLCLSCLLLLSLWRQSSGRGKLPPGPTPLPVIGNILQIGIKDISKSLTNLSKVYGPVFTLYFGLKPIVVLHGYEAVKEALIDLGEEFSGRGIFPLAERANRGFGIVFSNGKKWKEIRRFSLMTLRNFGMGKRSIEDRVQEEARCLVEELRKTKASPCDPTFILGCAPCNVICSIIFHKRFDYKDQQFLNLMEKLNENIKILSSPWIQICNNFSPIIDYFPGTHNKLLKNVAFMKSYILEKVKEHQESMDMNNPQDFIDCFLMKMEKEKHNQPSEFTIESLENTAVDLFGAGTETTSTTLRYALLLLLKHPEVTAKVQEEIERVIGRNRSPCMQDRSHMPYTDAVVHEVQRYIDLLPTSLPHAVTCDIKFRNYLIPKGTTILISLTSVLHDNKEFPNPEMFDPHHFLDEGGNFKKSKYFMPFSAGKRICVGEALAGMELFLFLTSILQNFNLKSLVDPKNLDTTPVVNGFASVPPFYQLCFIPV

[15] = Half life in rat at 1 mg/kg, iv; type: ADME, organism-based; set-up: dose 1 mg/kg, route intravenous; conditions: in vivo
Cytochrome P450 1A2 = biological target: T1, Cytochrome P450 1A2 (Homo sapiens, UniProt P05177); experiment: Inhibition of CYP1A2; type: ADME
T1 sequence (P05177 whole entry): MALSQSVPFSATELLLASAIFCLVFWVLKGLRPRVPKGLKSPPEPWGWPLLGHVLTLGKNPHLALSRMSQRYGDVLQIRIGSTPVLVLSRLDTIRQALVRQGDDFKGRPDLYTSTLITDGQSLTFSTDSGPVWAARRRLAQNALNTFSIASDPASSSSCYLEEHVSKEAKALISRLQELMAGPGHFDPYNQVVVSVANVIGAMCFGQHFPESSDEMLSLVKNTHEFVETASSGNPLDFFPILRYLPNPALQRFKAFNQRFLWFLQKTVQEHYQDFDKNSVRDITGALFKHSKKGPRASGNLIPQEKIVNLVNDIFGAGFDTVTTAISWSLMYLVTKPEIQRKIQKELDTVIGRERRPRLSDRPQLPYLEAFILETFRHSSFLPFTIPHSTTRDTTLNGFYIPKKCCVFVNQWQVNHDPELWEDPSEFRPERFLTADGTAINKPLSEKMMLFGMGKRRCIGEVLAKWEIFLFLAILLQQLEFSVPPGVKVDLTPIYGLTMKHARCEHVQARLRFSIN

Cytochrome P450 2D6 = Cytochrome P450 2D6 (Homo sapiens, UniProt P10635); experiment: Inhibition of CYP2D6; type: ADME
Chain of Cytochrome P450 2D6 (P10635 whole entry): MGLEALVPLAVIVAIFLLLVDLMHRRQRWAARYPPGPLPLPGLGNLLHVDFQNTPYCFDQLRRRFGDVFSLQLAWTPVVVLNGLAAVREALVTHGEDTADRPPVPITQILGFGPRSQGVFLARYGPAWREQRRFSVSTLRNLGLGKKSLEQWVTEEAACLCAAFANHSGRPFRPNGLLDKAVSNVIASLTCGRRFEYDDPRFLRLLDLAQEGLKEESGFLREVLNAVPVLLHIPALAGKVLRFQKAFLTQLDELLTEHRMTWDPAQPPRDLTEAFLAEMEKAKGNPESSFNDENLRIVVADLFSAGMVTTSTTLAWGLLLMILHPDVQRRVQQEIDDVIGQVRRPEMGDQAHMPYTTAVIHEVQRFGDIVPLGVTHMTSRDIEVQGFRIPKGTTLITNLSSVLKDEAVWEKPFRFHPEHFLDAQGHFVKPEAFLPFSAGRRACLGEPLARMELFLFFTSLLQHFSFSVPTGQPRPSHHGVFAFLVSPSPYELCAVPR

[16] = Cmax in po dosed rat; type: ADME, organism-based; set-up: route oral; conditions: in vivo
[17] = Oral bioavailability in rat; type: ADME, organism-based; conditions: in vivo
[18] = Drug uptake in ip dosed rat brain after 1 hr; type: ADME, organism-based; conditions: read-out: Drug uptake
Rattus norvegicus [19] = experiment: AUC (0 to 6 hrs) in po dosed rat; type: ADME, organism-based, Plasma; set-up: time < 6 hr, route oral; conditions: in vivo
[20] = Ratio of drug level in brain to plasma in ip dosed rat; type: ADME, organism-based; conditions: brain and plasma, read-out: BPR

Compound `C[C@@H]1CCCN1CCCOc1ccc(-c2ccc(=O)n(C)n2)cc1` has a bioavailability [1] of 28%, a Tmax [2] of 60 min and a half-life [3] greater than 40 min. For the same compound, the Cmax [4] was 123 ng/mL, the Vd [5] was 6.5 L/kg and the Kp [6] was 3.9. The Ki (Histamine H3 receptor [7]) was 6 nM, the concentration at 1 h [8] was 3440 ng/g and the Ki (Histamine H3 receptor [9]) was 1 nM. The half-life [10] was greater than 40 min, the AUC (Rattus norvegicus [11]) was 538 ng·h/mL and the half-life [12] was greater than 40 min. It also gave a half-life [13] greater than 40 min.
Compound `Cn1nc(-c2ccc(C(=O)N3CCN4CCC[C@H]4C3)cc2)ccc1=O` has a Ki (Histamine H3 receptor [7]) greater than 1000 nM and a Ki (Histamine H3 receptor [9]) greater than 1000 nM.
For `Cn1nc(-c2ccc(OC3CCN(C4CCC4)CC3)cc2)ccc1=O`, the Ki (Histamine H3 receptor [7]) was 3 nM, the Ki (Histamine H3 receptor [9]) was 3 nM and the half-life [10] was 35 min.
Work on `Cn1nc(-c2ccc(OC3CCN(C4CCCC4)CC3)cc2)ccc1=O` yielded a Ki (Histamine H3 receptor [7]) of 6 nM and a Ki (Histamine H3 receptor [9]) of 3 nM.
`CN1CCCN(c2ccc(-c3ccc(=O)n(C)n3)cc2)CC1` showed a Ki (Histamine H3 receptor [7]) greater than 1000 nM and a Ki (Histamine H3 receptor [9]) greater than 500 nM.
With `Cn1nc(-c2ccc(N3CCN(C4CCCC4)CC3)cc2)ccc1=O` the Ki (Histamine H3 receptor [7]) was 255 nM and the Ki (Histamine H3 receptor [9]) was 93 nM.
`CC(C)N1CCN(c2ccc(-c3ccc(=O)n(C)n3)cc2)CC1` showed a Ki (Histamine H3 receptor [7]) of 419 nM and a Ki (Histamine H3 receptor [9]) of 110 nM.
With `Cn1nc(-c2ccc(N3CCN4CCC[C@H]4C3)cc2)ccc1=O` the Ki (Histamine H3 receptor [7]) was greater than 1000 nM and the Ki (Histamine H3 receptor [9]) was 308 nM.
For `Cn1nc(-c2ccc(C(=O)N3CCN(C4CCCC4)CC3)cc2)ccc1=O`, the Ki (Histamine H3 receptor [7]) was 186 nM and the Ki (Histamine H3 receptor [9]) was 134 nM.
`CC(C)N1CCN(C(=O)c2ccc(-c3ccc(=O)n(C)n3)cc2)CC1` showed a Ki (Histamine H3 receptor [7]) of 185 nM and a Ki (Histamine H3 receptor [9]) of 167 nM.
`Cn1nc(-c2ccc(C(=O)N3CCC[C@H]3CN3CCCC3)cc2)ccc1=O` showed an IC50 (Cytochrome P450 3A4) greater than 30000 nM, an IC50 (Cytochrome P450 2C19) greater than 30000 nM and a bioavailability [1] of 45%. It also gave a half-life [3] greater than 40 min, a Cmax [4] of 412 ng/mL and a Vd [5] of 2.5 L/kg. It also gave a clearance [14] of 18 mL/min/kg, a Kp [6] of 0.37 and a Ki (Histamine H3 receptor [7]) of 84 nM. It also gave a concentration at 1 h [8] of 454 ng/g, a Ki (Histamine H3 receptor [9]) of 10 nM and a half-life [10] greater than 40 min. The AUC (Rattus norvegicus [11]) was 2180 ng·h/mL, the half-life [12] was greater than 40 min and the IC50 (Cytochrome P450 2C9) was greater than 30000 nM. It also gave a half-life [13] greater than 40 min, a half-life [15] of 96 min and an IC50 (Cytochrome P450 1A2) greater than 30000 nM. The IC50 (Cytochrome P450 2D6) was greater than 30000 nM.
With `O=C(c1ccc(-c2ccc(=O)n(-c3ccc(F)cc3)n2)cc1)N1CCC[C@H]1CN1CCCC1` the bioavailability [1] was 13%, the half-life [3] was greater than 40 min and the Cmax [4] was 180 ng/mL. It also gave a Vd [5] of 1.1 L/kg, a clearance [14] of 12 mL/min/kg and a Kp [6] of 0.7. For the same compound, the Ki (Histamine H3 receptor [7]) was 92 nM, the concentration at 1 h [8] was 529 ng/g and the Ki (Histamine H3 receptor [9]) was 16 nM. For the same compound, the half-life [10] was greater than 40 min, the AUC (Rattus norvegicus [11]) was 1020 ng·h/mL and the half-life [12] was greater than 40 min. It also gave a half-life [13] greater than 40 min and a half-life [15] of 60 min.
Compound `O=C(c1ccc(-c2ccc(=O)[nH]n2)cc1)N1CCC[C@H]1CN1CCCC1` has a Ki (Histamine H3 receptor [7]) of 46 nM and a Ki (Histamine H3 receptor [9]) of 17 nM.
With `CNC(=O)c1ccc(Oc2ccc3c(c2)CCN(C2CCC2)CC3)nc1` [GSK189254] the Cmax [16] was 435 ng/mL, the bioavailability [17] was 51% and the concentration at 1 h [18] was 1660 ng/g. It also gave an AUC (Rattus norvegicus [19]) of 2600 ng·h/mL and a Kp [20] of 1.4.
